Test results reported in ChEMBL document CHEMBL3351524, “Toward fluorescent probes for G-protein-coupled receptors (GPCRs)” (J Med Chem, 2014).
Starred links: 1 amine or outer side, 2 acyl side, 3 side chain; linkers in the order of their positions; H or OH if unused. Non-standard residues stand in square brackets, D forms with d. Residues, ends and D or L forms follow the SMILES beside them. ξ: configuration not given here. *: point of attachment. X1 = O=C(O)C[C@@H](C(=O)[*:2])N(c1ccc([N+](=O)[O-])c2nonc12)[*:1]; NBD = O=[N+]([O-])c1ccc(*)c2nonc12; Nle = CCCC[C@H](N)C(=O)O; ξDab = NCCC(N)C(=O)O; Bz = O=C(c1ccccc1)*

Target: C-X-C chemokine receptor type 4 (Homo sapiens, UniProt P61073)
Experiment: Displacement of [125I]SDF1 from CXCR4 (unknown origin) expressed in CHO cells
Assay type: cell-based

Chain of C-X-C chemokine receptor type 4 (P61073 whole entry): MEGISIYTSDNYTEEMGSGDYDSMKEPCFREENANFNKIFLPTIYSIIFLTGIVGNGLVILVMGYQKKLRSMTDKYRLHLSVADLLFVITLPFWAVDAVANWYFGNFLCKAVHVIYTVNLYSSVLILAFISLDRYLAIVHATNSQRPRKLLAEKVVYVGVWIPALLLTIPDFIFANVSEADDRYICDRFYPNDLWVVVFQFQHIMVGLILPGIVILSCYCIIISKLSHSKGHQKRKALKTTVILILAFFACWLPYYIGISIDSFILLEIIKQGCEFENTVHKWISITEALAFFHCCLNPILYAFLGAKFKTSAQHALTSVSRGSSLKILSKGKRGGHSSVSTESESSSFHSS

Row | IC50 | Compound
1 | 5.2 nM | CC(=O)N[C@@H](CCCNC(=N)N)C(=O)N[C@@H](CCCNC(=N)N)C(=O)N[C@@H](Cc1cccc2ccccc12)C(=O)N[C@H]1CSSC[C@@H](C(=O)N[C@@H](CCCNC(=N)N)C(N)=O)NC(=O)[C@H](CCCNC(N)=O)NC(=O)[C@H](CCCNC(=N)N)NC(=O)[C@H](Cc2ccc(O)cc2)NC(=O)[C@@H]2CCCN2C(=O)[C@@H](CCCCN)NC(=O)[C@H](CCCNC(=N)N)NC(=O)[C@H](CCCNC(N)=O)NC(=O)[C@H](Cc2ccc(O)cc2)NC1=O
2 | 6.7 nM | CC(=O)N[C@@H](CCCNC(=N)N)C(=O)N[C@@H](CCCNC(=N)N)C(=O)N[C@@H](Cc1cccc2ccccc12)C(=O)N[C@H]1CSSC[C@@H](C(=O)N[C@@H](CCCNC(=N)N)C(N)=O)NC(=O)[C@H](CCCNC(N)=O)NC(=O)[C@H](CCCNC(=N)N)NC(=O)[C@H](Cc2ccc(O)cc2)NC(=O)[C@@H]2CCCN2C(=O)[C@@H](CCC(=O)O)NC(=O)[C@H](CCCNC(=N)N)NC(=O)[C@H](CCCNC(N)=O)NC(=O)[C@H](Cc2ccc(O)cc2)NC1=O

Target: T1, Substance-K receptor (Homo sapiens, UniProt P21452)
T1 sequence (P21452 whole entry): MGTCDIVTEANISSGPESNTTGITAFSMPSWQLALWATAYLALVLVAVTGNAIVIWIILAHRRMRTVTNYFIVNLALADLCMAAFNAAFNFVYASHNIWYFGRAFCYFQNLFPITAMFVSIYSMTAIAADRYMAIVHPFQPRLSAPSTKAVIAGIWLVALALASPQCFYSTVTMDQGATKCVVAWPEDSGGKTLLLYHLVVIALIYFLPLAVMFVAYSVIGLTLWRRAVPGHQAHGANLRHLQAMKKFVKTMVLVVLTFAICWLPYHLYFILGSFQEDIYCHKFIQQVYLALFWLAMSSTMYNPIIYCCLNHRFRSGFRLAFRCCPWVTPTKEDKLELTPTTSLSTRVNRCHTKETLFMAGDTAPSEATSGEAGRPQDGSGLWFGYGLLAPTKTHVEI
Experiment: Displacement of [3H]GR100679 from NK2 receptor (unknown origin) expressed in CHO/T cells
Assay type: cell-based

Row | Compound | Ki
3 | CCCC[C@H](NC(=O)[C@@H]1CCCN1C(=O)[C@H]1CCCN1C(=O)[C@H](Cc1ccccc1)NC(=O)[C@@H](Cc1c[nH]c2ccccc12)NC(=O)[C@H](C)NC(=O)[C@H](CCCNc1ccc([N+](=O)[O-])c2nonc12)NC(=O)c1ccccc1)C(N)=O | 1.45 nM
4 | CSCC[C@H](NC(=O)[C@H](CC(C)C)NC(=O)CNC(=O)[C@@H](NC(=O)[C@H](Cc1ccccc1)NC(=O)[C@H](CO)NC(=O)[C@H](CC(=O)O)NC(=O)[C@@H](NC(=O)[C@H](CCCCN)NC(=O)[C@H](Cc1cnc[nH]1)Nc1ccc([N+](=O)[O-])c2nonc12)[C@@H](C)O)C(C)C)C(N)=O | 5.89 nM
5 | CCCC[C@H](NC(=O)[C@@H]1CCCN1C(=O)[C@H]1CCCN1C(=O)[C@H](Cc1ccccc1)NC(=O)[C@@H](Cc1c[nH]c2ccccc12)NC(=O)[C@H](C)NC(=O)[C@H](C)NC(=O)c1ccccc1)C(N)=O (Bz-AA[dW]F[dP]P[Nle]-NH2) | 0.155 nM
6 | CCCC[C@H](NC(=O)[C@H](CC(C)C)NC(=O)CNC(=O)[C@@H](NC(=O)[C@H](Cc1ccccc1)NC(=O)[C@H](CO)NC(=O)[C@H](CC(=O)O)Nc1ccc([N+](=O)[O-])c2nonc12)C(C)C)C(N)=O (H-[X1]SFVGL[Nle]-NH2) | 8.32 nM

The next lines start with the values.

Row | Ki | Compound
7 | 1.35 nM | CCCC[C@H](NC(=O)[C@@H]1CCCN1C(=O)[C@H]1CCCN1C(=O)[C@H](Cc1ccccc1)NC(=O)[C@@H](Cc1c[nH]c2ccccc12)NC(=O)[C@H](C)NC(=O)C(CCNc1ccc([N+](=O)[O-])c2nonc12)NC(=O)c1ccccc1)C(N)=O (some centres undefined)
8 | 1.58 nM | CCCC[C@H](NC(=O)[C@@H]1CCCN1C(=O)[C@H]1CCCN1C(=O)[C@H](Cc1ccccc1)NC(=O)[C@@H](Cc1c[nH]c2ccccc12)NC(=O)[C@H](C)NC(=O)[C@H](CCCCNCC(=O)Nc1ccc([N+](=O)[O-])c2nonc12)NC(=O)c1ccccc1)C(N)=O
9 | 1950 nM | CCCC[C@H](NC(=O)[C@H](CC(C)C)NC(=O)CNC(=O)C(CCNc1ccc([N+](=O)[O-])c2nonc12)NC(=O)[C@H](Cc1ccccc1)NC(=O)[C@H](CO)NC(=O)[C@H](CC(=O)O)NC(C)=O)C(N)=O (some centres undefined) (Ac-DSF[ξDab](NBD)GL[Nle]-NH2)
